From patent US20150250746A1, “ACAMPROSATE FORMULATIONS, METHODS OF USING THE SAME, AND COMBINATIONS COMPRISING THE SAME” (Synchroneuron Inc., priority 2013, published 2015)

Tests used:
tardive dyskinesia = assay: Clinical cases: acamprosate in patients with tardive dyskinesia; format: in vivo, human; details: for relief of TD involuntary movements: Case 2
Experimental: Case 1: A person had long-standing tardive dyskinesia induced by treatment of schizoaffective disorder with a variety of neuroleptics and mood stabilizers. Their TD was characterized by side to side movements of the jaw, grimacing movements, rocking of the trunk, and continual involuntary kicking, leg-crossing, and twisting movements of their legs and feet. At the time they presented for treatment of their TD they were treated for their mental illness with lamotrigine and quetiapine, a second-generation neuroleptic.
To test the hypothesis that the efficacy of acamprosate was related to adequate time above a threshold blood level the patient was asked to try taking 1332 mg of acamprosate once a day.
CASE 2: A person had been treated with acamprosate for several years for TD due to exposure to several neuroleptics for schizoaffective disorder. They were currently treated with lamotrigine and quetiapine for their mental illness, and was taking acamprosate 1032 mg+999 mg+1032 mg on a three times daily basis. […] To test the therapeutic threshold hypothesis the patient was asked to try 1032 mg of acamprosate once a day in the morning. […] They noted that when they got relief of their involuntary movements they also had less anxiety and agitation than when the movements were present.

[1] = test system: cultured rat hippocampus neurons; assay: Organotypic hippocampal slice model of glutamate neurotoxicity; format: cell-based; details: 200 μM calcium acamprosate 8 hr or 5 days, removed from medium for up to eight hours
Experimental: The study is designed to test whether pre-treatment with acamprosate can have long-term neuronal protective effects against glutamate neurotoxicity. The study uses an in vitro organotypic hippocampal slice model. The study assesses whether less than 24 hours per day of exposure to a sufficient level of acamprosate can offer 24-hour therapeutic actions in neuropsychiatric disorders. […] This supports, among other things, the therapeutic use of acamprosate in neuropsychiatric disorders because the latter are related to the effect of acamprosate to decrease glutamate effects at NMDA and metabotropic glutamate receptors.
Hippocampal slices derived from 8-day-old Sprague Dawley rats are plated and subsequently exposed to a relatively acute (8 hour) or more chronic (5 day) acamprosate treatment. The slices are then removed from the medium containing acamprosate and returned to control medium for either 1 or 8 hours. […] The slices are then placed in normal medium with propidium iodide for 24 hr and assessed for neurotoxicity/neuroprotection as described below. […]
Neurotoxicity/neuroprotection assessment: For the final medium change, the plates are moved into normal media containing propidium iodide (PI) added to each well for 24 hours. PI only penetrates cell membranes of damaged or potentially dying cells, binding to DNA to produce a bright, intensified red fluorescence at 630 nm. […]

[2] = test system: abnormal chewing movements; assay: Rat model of tardive dyskinesia (haloperidol-induced abnormal chewing movements); format: in vivo; details: steadily-maintained blood level; haloperidol-exposed rats
Experimental: Acamprosate is tested using a rat model of tardive dyskinesia looking at abnormal chewing movements produced in rats by exposing them for several weeks to haloperidol, a potent first-generation neuroleptic. […] Rats then are dosed with acamprosate in a way that matches the therapeutic blood level for no more than 12 hours out of 24, to confirm that this reduces the involuntary movements.

abnormal movements = assay: Transgenic mouse models with movement disorders and hyperglutamatergic states; format: in vivo; details: steadily-maintained blood level; Per2(Brdm1) deletion or ENT1(-/-) mice
[3] = cited from earlier work
[4] = in vivo; cited from earlier work
[5] = Gastric retention of swellable acamprosate tablet in dog model, induction of fed mode with alpha-lipoic acid; format: in vivo; details: of 800 mg swellable acamprosate tablet after 125 mg alpha-lipoic acid given 15 minutes before; four beagle dogs

Row | Average gastric retention time [5] [h] | Maximum gastric retention time [5] [h] | Minimum gastric retention time [5] [h] | SMILES | relief of TD symptoms (tardive dyskinesia; Case 1, 666 mg three times a day) | relief of TD symptoms (tardive dyskinesia; Case 1, 999 mg three times a day) | anxiety and agitation (tardive dyskinesia; Case 1, 999 mg three times a day with perphenazine) | relief of TD symptoms (tardive dyskinesia; Case 1, 1332 mg once a day) | side effects (tardive dyskinesia; Case 1, 1332 mg once a day) | relief of TD involuntary movements (tardive dyskinesia; 999 mg three times a day) | relief of TD involuntary movements (tardive dyskinesia; 1032 mg morning plus second dose of 1032 mg 8 to 10 hours later) | relief of TD involuntary movements (tardive dyskinesia; 1032 mg once a day in the morning) | relief of TD involuntary movements (tardive dyskinesia; 1032 mg+999 mg+1032 mg three times daily) | protection of neurons from challenge with a toxic level of a glutamate agonist [1] | abnormal chewing movements [2] | abnormal movements (abnormal movements) | solubility [3] | solubility in gastric juice [3] | decrease of bioavailability by food [4]
1 |  |  |  | CC(=O)NCCCS(=O)(=O)O [acamprosate, calcium N-acetylhomotaurinate] | partial relief of symptoms | complete relief of their TD | relief of anxiety and agitation | free of involuntary movements of TD | significant GI side effects of diarrhea and abdominal cramps | did not give full relief | complete relief of symptoms | free of movements in the morning and early afternoon but movements returned in the evening | completely relieved their involuntary movements of TD | persistent effect | reduce or eliminate the abnormal movements | reduce or eliminate the abnormal movements | high solubility | immediately and completely soluble | approximately 30%
2 | 2.8 | 5 | 1.5 | O=C(O)CCCCC1CCSS1 (stereo not drawn) [alpha-lipoic acid] |  |  |  |  |  |  |  |  |  |  |  |  |  |  | 
